Read-outs that look alike come from different tables or passages of the source. A value given as a limit tells only on which side of the number the result lay.

In data set [1] the target is T1, dopamine transporter (DAT) (Rattus norvegicus, UniProt P23977).
T1 construct: Striata were homogenized in 20 ml of ice-cold sucrose solution; from tissue; host or cells: striatal synaptosomes
In words: [3H]Dopamine uptake assay, striatal synaptosomes. It counts as biochemical.

Data set [2] concerns the target T2, α4β2* nicotinic receptor (Rattus norvegicus, UniProt P09483+P12390). In words: Nicotine-evoked 86Rb+ efflux assay, thalamic synaptosomes. It counts as biochemical. Further details: from tissue. Particulars: read-out: Inhibition of Nicotine-Evoked 86Rb+ Efflux (IC50) α4β2*.
For data set [3], the target named is T3, serotonin transporter (SERT) (Rattus norvegicus, UniProt P31652).
T3 construct: Rat hippocampus was homogenized in 20 mL cold 0.32 M sucrose; from tissue; host or cells: rat hippocampal synaptosomes
In words: [3H]5-HT uptake assay, hippocampal synaptosomes. It counts as biochemical. Particulars: for IC50: Table 4, earlier studies.

The next data set concerns the target T4, α7* nicotinic receptor (Rattus norvegicus, UniProt Q05941).
T4 construct: Whole rat brain (minus cortex, striatum and cerebellum) was homogenized; from tissue; host or cells: rat whole brain membranes (minus cortex, striatum and cerebellum)
The data set can be described thus: [3H]Methyllycaconitine ([3H]MLA) binding assay.

For a further data set, the target named is α6β2* nicotinic receptor (Rattus norvegicus, UniProt P12390+P43143). The data set can be described thus: Nicotine-evoked [3H]DA overflow from superfused striatal slices. The data set is classed as cell-based.
Data set [4] has as its target T2, α4β2* nicotinic receptor. The data set can be described thus: High affinity [3H]nicotine binding assay. Also on record: The pellet containing the striatal membranes was resuspended; from tissue; host or cells: rat striatal membranes.
For the next data set, the target named is α3β4* nicotinic receptor (Rattus norvegicus, UniProt P04757+P12392). The data set can be described thus: Nicotine-evoked [3H]NE overflow from superfused hippocampal slices. The data set is classed as cell-based. Particulars: inhibition of 10 μM S(−)-nicotine.
In data set [5] the target is T5, VMAT2 (Rattus norvegicus, UniProt Q01827). The data set can be described thus: biochemical.
Data set [6] concerns methamphetamine-evoked endogenous DA release from striatal slices. In words: Methamphetamine-evoked endogenous DA overflow from superfused striatal slices. The data set is classed as cell-based. To be noted: read-out: Inhibition of Methamphetamine Evoked DA Overflow IC50 (Mean).
In data set [7] the target is T5, VMAT2. The data set can be described thus: [3H]Dihydrotetrabenazine ([3H]DTBZ) binding assay, synaptic vesicles. Particulars: inhibition of [3H]DTBZ binding Ki, text b58.
The mark [8] stands for this setting: Table 1, read-out: [3H]DA Uptake (Ki).
[9] abbreviates: Table 3, earlier study, read-out: Ki [3H]-Dopamine Uptake Assay.
[10] abbreviates: Table 1, read-out: [3H]5-HT Uptake (Ki) SERT.
Where [11] appears, read: Table 1, rat whole brain membranes, read-out: [3H]MLA Binding (Ki) α7*.
The mark [12] stands for this setting: Table 1, inhibition of 10 μM S(−)-nicotine, NI: no inhibition, read-out: Inhibition of Nicotine-Evoked [3H]DA Overflow (IC50) α6β2*.
[13] abbreviates: Table 1, rat striatal membranes, read-out: [3H]Nicotine Binding (Ki) α4β2*.
Where [14] appears, read: Table 3, earlier study, read-out: Ki [3H]-Nicotine Binding Assay.
The mark [15] stands for this setting: inhibition of nicotine-evoked [3H]DA overflow IC50.
[16] abbreviates: Table 4, earlier studies, read-out: [3H]Nicotine Binding (Ki) α4β2*.

T1 sequence (P23977 whole entry): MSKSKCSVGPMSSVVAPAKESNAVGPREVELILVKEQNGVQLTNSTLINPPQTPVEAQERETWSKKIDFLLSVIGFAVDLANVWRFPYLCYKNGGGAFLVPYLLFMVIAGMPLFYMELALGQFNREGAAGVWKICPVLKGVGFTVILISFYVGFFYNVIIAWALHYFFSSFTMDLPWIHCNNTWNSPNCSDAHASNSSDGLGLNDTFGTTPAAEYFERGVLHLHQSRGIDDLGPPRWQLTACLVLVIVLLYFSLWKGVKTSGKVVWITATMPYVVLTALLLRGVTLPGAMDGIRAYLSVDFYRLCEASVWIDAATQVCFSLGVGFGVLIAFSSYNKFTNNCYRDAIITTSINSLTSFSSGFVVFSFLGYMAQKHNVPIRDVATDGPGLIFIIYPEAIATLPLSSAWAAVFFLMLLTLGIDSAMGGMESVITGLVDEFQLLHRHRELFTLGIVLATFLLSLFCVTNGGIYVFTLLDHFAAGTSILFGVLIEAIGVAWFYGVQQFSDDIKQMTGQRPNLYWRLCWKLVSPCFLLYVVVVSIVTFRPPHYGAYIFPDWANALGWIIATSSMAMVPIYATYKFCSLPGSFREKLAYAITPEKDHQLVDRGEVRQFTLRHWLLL
α3β4* nicotinic receptor, sequence (P04757 26-499): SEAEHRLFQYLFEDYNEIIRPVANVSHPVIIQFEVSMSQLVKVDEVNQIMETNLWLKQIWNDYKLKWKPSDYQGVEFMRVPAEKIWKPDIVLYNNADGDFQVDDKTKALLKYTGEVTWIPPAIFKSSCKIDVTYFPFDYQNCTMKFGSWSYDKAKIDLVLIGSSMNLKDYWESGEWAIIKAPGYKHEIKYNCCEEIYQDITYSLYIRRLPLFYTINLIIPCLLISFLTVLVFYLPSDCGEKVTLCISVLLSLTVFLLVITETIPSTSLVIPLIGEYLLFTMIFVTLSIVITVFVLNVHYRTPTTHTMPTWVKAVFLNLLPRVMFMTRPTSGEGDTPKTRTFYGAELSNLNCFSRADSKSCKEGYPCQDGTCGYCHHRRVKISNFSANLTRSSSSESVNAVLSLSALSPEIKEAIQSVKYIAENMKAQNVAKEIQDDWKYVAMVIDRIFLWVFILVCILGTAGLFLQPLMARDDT
α3β4* nicotinic receptor, sequence (P12392 21-495): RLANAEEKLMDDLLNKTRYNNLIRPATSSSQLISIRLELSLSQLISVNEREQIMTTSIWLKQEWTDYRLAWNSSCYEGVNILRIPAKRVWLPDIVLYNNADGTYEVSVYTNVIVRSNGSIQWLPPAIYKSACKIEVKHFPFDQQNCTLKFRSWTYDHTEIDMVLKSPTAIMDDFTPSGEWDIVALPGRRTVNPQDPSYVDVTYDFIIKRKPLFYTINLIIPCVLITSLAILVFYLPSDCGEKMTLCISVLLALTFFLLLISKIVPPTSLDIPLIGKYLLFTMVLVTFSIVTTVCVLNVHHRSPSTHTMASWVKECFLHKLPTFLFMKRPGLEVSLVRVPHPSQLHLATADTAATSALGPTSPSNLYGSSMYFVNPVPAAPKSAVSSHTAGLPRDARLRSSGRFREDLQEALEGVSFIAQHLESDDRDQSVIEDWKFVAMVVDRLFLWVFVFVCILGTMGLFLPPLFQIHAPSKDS
T4 sequence (Q05941 23-502): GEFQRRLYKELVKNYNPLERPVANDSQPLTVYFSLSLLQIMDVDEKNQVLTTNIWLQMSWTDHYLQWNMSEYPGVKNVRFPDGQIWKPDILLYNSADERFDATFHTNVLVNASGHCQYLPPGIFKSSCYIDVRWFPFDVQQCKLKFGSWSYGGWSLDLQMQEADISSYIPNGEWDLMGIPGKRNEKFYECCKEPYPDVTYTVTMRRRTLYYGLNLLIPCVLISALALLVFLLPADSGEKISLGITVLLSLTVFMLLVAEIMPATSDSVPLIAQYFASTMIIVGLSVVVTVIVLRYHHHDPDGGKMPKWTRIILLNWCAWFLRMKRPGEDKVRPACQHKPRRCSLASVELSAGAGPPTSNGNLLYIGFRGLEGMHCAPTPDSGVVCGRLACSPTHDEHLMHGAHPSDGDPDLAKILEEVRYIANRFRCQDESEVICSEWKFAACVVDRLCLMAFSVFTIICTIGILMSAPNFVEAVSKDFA
T3 sequence (P31652 whole entry): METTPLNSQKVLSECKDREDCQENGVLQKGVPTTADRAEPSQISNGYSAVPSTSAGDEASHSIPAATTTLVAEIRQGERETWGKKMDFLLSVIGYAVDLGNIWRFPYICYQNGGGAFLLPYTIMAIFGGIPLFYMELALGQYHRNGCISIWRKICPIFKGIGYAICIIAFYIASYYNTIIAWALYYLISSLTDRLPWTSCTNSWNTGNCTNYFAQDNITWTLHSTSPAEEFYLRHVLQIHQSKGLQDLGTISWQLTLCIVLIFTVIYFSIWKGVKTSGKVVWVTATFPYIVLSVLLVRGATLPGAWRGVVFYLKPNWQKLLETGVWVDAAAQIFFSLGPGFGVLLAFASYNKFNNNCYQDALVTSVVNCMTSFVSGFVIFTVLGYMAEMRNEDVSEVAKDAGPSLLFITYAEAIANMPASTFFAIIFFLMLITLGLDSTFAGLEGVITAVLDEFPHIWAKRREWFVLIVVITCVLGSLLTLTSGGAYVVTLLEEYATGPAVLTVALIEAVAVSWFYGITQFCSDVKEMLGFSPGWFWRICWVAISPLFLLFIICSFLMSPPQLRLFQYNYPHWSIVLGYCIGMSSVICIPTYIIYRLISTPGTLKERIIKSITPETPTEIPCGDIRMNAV
T5 sequence (Q01827 whole entry, the tested form may be a part): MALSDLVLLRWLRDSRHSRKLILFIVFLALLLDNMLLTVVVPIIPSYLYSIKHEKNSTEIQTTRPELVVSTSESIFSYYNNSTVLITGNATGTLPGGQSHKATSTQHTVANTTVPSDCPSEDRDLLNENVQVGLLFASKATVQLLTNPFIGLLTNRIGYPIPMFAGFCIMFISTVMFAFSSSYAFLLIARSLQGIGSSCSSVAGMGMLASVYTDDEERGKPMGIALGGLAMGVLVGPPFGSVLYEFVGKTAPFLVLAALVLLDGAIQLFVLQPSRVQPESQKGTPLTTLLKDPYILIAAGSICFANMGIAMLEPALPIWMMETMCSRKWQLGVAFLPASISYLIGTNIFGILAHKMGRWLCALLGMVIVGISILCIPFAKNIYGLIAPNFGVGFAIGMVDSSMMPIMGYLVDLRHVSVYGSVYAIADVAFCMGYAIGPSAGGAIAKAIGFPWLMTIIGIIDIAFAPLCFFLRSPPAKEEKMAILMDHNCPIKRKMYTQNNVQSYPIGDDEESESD
α6β2* nicotinic receptor, sequence (P43143 31-493): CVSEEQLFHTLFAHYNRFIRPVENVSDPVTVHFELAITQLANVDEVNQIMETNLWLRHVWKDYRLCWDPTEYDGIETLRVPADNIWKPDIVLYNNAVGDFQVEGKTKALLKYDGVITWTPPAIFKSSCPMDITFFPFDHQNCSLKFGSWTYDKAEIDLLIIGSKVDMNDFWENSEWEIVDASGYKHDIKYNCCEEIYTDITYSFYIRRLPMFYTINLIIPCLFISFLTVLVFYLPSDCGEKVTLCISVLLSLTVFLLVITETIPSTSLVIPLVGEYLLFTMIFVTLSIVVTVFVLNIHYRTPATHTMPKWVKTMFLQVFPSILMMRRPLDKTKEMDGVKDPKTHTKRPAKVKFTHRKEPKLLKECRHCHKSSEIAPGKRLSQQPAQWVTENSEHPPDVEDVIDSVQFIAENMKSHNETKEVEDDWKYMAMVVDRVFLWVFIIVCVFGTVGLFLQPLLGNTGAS
α6β2* nicotinic receptor, sequence (P12390 25-500): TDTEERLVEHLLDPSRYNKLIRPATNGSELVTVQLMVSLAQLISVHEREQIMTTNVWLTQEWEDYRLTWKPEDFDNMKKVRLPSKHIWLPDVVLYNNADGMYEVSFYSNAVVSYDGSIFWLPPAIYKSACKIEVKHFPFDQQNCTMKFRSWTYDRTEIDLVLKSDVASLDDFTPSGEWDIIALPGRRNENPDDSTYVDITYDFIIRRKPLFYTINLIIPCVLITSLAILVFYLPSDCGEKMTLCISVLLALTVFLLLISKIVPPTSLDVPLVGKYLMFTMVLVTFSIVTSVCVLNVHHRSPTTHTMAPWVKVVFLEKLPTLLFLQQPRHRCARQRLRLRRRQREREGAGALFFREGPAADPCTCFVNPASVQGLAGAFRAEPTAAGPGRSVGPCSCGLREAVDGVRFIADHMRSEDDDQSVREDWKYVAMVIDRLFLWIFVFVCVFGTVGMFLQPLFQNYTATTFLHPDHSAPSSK
T2 sequence (P09483 31-630): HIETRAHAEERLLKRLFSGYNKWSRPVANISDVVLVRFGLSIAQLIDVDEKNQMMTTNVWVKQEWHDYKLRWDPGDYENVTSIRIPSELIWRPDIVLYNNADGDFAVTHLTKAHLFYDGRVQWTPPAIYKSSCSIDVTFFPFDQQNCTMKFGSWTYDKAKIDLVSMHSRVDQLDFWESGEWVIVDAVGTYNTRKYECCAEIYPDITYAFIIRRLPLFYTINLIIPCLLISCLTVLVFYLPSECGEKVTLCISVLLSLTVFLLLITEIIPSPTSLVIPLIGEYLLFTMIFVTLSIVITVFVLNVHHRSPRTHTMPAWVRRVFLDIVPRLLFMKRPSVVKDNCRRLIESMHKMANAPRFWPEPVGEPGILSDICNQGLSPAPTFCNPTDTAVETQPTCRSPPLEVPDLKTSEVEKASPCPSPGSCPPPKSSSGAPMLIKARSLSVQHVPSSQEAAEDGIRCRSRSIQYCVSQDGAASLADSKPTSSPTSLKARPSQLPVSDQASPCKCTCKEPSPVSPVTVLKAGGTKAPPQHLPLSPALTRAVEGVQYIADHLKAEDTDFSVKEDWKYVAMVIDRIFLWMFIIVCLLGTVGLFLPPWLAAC
T2 sequence (P12390 25-500): as the sequence (P12390 25-500) above

On to `Cc1ccc(S(=O)(=O)O[C@@H](C[C@H]2CCC[C@@H](CC(=O)c3ccccc3)N2C)c2ccccc2)cc1` [Compound 2, 2S,6R,8S-2-[6-(β-Para-toluenesulfonyloxyphenethyl)-1-methyl-2-piperidyl]-acetophenone], for which the Ki worked out at 29100 nM in data set [1] (setting [8]); 39000 nM in [1] (setting [9]); 1670 nM in [3] (setting [10]); 10800 nM on α7* nicotinic receptor (setting [11]); 11 nM on α4β2* nicotinic receptor [4] (setting [13]); 4.1 nM on α4β2* nicotinic receptor [4] (setting [14]). In addition, the IC50 is 2 nM on α4β2* nicotinic receptor [2] and 1000 nM at α6β2* nicotinic receptor (setting [12]).

On to `CN1[C@@H](CC(=O)c2ccccc2)CCC[C@H]1/C=C/c1ccccc1` [Compound 5, N-methyl-2R-phenacyl-6S-trans-styrylpiperidine], for which the Ki in [1] (setting [8]) was 1740 nM; in data set [1] (setting [9]), 3000 nM; in [3] (setting [10]), 1860 nM; at α7* nicotinic receptor (setting [11]), 34200 nM; on α4β2* nicotinic receptor [4] (setting [13]), 440 nM; on α4β2* nicotinic receptor [4] (setting [14]) it was 130 nM. Also, the figures for the “inhibition of DAT, potency compared with lobeline” value in [1] (Table 1 data) and in data set [1] (earlier study (Table 3)) were 17 fold and 10 fold, respectively. Moreover, the IC50 at α4β2* nicotinic receptor [2] is 300 nM.

Consider `CN1[C@@H](C[C@@H](O)c2ccccc2)CCC[C@H]1/C=C/c1ccccc1` [Compound 6, N-Methyl-2R-(2R-hydroxy-2-phenethyl)-6S-trans-styrylpiperidine], for which the melting point fell in the range of 104 to 105 °C. Further, the Ki in [1] (read-out: [3H]DA Uptake (Ki)) is 860 nM. For the same molecule, the Ki in [3] ([3H]5-HT Uptake (Ki) SERT) was found to be 40 nM. This molecule also gave an inhibitory constant (Ki) in [3] (inhibition of serotonin uptake Ki) of 10 to 380 nM. At α7* nicotinic receptor, this molecule yielded a Ki of 1600 nM. Further, the inhibition constant Ki on α4β2* nicotinic receptor [4] (setting [13]) is 7600 nM.

With `CN1[C@H](/C=C/c2ccccc2)CCC[C@@H]1/C=C/c1ccccc1` [Compound 14, N-methyl-2,6-cis-di-trans-styrylpiperidine], the melting point was in the range of 149 to 150 °C. The same molecule registered an IC50 against α3β4* nicotinic receptor (Table 1) of 10 nM. On α3β4* nicotinic receptor (Table 4, earlier studies), the IC50 worked out at 21 nM. Besides, the Ki in data set [1] (setting [8]) stood at 580 nM. In addition, the Ki in data set [1] (setting [9]) is 800 nM. Moreover, the IC50 at α4β2* nicotinic receptor [2] is greater than 10000 nM. The Ki in [3] (setting [10]) stood at 8940 nM. This molecule also returned an IC50 in data set [3] of 23200 nM. This molecule returned an IC50 at VMAT2 [5] of 1290 nM. Moreover, at α6β2* nicotinic receptor, the “selectivity as inhibitor of α6β2* (and α3β4*) subtypes of nAChR compared to inhibition of SERT function” value amounted to 770 fold, the “selectivity for the α6β2* subtype of nAChR relative to interaction with the MTBZ site on VMAT2” value stood at 43 fold and the “selectivity for α6β2* (and α3β4*) subtypes of nAChR compared to α4β2* or α7* subtypes” value is greater than 370 fold. On α6β2* nicotinic receptor (Inhibition of Nicotine-Evoked [3H]DA Overflow (IC50) α6β2*), this molecule had a concentration for half-maximal inhibition (IC50) of 30 nM. On α6β2* nicotinic receptor (setting [15]), this molecule yielded an IC50 of 0.3 nM. Further, the “more potent at inhibiting nicotine-evoked [3H]DA and [3H]NE release compared to Compound 15” value at α6β2* nicotinic receptor (rat striatal and hippocampal slices, earlier data) came to 18 fold. Further, the IC50 in data set [6] (Rattus norvegicus) fell in the range of 430 to 1250 nM. The IC50 in data set [6] (superfused rat striatal slices) turned out to be 700 nM. Moreover, the Ki on α4β2* nicotinic receptor [4] (setting [13]) is greater than 100000 nM. Further, the inhibition constant (Ki) at α4β2* nicotinic receptor [4] (setting [14]) is greater than 100000 nM. For the same molecule, at α4β2* nicotinic receptor [4] (setting [16]), the Ki came to 11000 nM.

Take `CN1[C@H](/C=C/c2ccccc2)CCC[C@H]1/C=C/c1ccccc1` [Compound 15, N-methyl-2S,6S-trans-di-trans-styrylpiperidine]: the half-inhibitory concentration (IC50) against α3β4* nicotinic receptor (Table 1) was 30 nM; in data set [3], 1190 nM; against VMAT2 [5], 5150 nM; on α6β2* nicotinic receptor (setting [12]) it was 1000 nM; on α6β2* nicotinic receptor (Table 4, earlier studies, inhibition of 10 μM S(−)-nicotine, read-out: Inhibition of Nicotine-Evoked [3H]DA Overflow (IC50) α6β2*), 540 nM; on α6β2* nicotinic receptor (setting [15]), 100 to 1000 nM. Also, the IC50 in data set [6] (Rattus norvegicus) was greater than 100000 nM. The Ki was 260 nM in data set [1] (setting [8]); 380 nM in [3] (setting [10]); 10 to 380 nM in data set [3] (read-out: inhibition of serotonin uptake Ki); 11900 nM at α4β2* nicotinic receptor [4] (setting [13]); 13000 nM at α4β2* nicotinic receptor [4] (setting [16]). Moreover, the “more potent inhibiting the function of SERT than Compound 14” value in data set [3] (earlier data) is listed as 19 fold. Moreover, the “selectivity as inhibitor of α6β2* (and α3β4*) subtypes of nAChR compared to inhibition of SERT function” value at α6β2* nicotinic receptor came out at 2.2 fold. For the same molecule, the “selectivity for the α6β2* subtype of nAChR relative to interaction with the MTBZ site on VMAT2” value at α6β2* nicotinic receptor amounted to 9.5 fold. In addition, the “selectivity for α6β2* (and α3β4*) subtypes of nAChR compared to α4β2* or α7* subtypes” value on α6β2* nicotinic receptor is greater than 24 fold. The “loss of affinity for the nicotinic receptor compared to lobeline” value on α4β2* nicotinic receptor [4] (Table 1 data, [3H]nicotine binding) amounted to 1000 fold.

`CN1[C@@H](/C=C/c2ccccc2)CCC[C@@H]1/C=C/c1ccccc1` [Compound 16, N-methyl-2R,6R-trans-di-trans-styryl piperidine] displayed a melting point of 92 to 93 °C. In data set [6] (Rattus norvegicus), the IC50 was in the range of 430 to 1250 nM. Further, the IC50 in data set [6] (superfused rat striatal slices) stood at 430 nM. Further, on α4β2* nicotinic receptor [4] (setting [13]), the inhibition constant (Ki) is 12300 nM.

`CN1[C@H](CCc2ccccc2)CCC[C@H]1CCc1ccccc1` [Compound 18, N-methyl-2S,6S-trans-di-(2-phenethyl)piperidine]: the values for the Ki (in data set [1] ([3H]DA Uptake (Ki)); in [3] ([3H]5-HT Uptake (Ki) SERT); on α7* nicotinic receptor (setting [11])) were 3690 nM, 2920 nM and 24300 nM, respectively. Also, the IC50 was 3 nM on α6β2* nicotinic receptor (read-out: inhibition of nicotine-evoked [3H]DA overflow IC50) and greater than 100000 nM in data set [6] (Rattus norvegicus).

`COc1ccccc1CC[C@H]1CCC[C@@H](CCc2ccccc2OC)N1C` [Compound 37, N-methyl-2,6-cis-di-(o-methoxyphenethyl)piperidine]: the Ki is 430 to 680 nM on VMAT2 [7], 26000 nM on α7* nicotinic receptor (setting [11]) and greater than 100000 nM at α4β2* nicotinic receptor [4] (setting [13]).

`COc1cccc(CC[C@H]2CCC[C@@H](CCc3cccc(OC)c3)N2C)c1` [Compound 39, N-methyl-2,6-cis-di-(m-methoxyphenethyl)piperidine]: the values for the inhibitory constant (Ki) on VMAT2 [7], on α7* nicotinic receptor (setting [11]) and on α4β2* nicotinic receptor [4] (setting [13]) were 430 to 680 nM, 25500 nM and greater than 100000 nM, respectively.

Source of the values: patent US7368443B2, “2,6-disubstituted piperidines and piperazine compounds” (University of Kentucky Research Foundation, priority 1999, dated 2008).
